{
  "source": "patent US20040259818A1",
  "about": "“Glucoronide adduct as gaba ligand” (priority 2001, published 2004)",
  "key": {"elevated plus maze test": {"assay": "elevated plus maze test", "details": "in vivo"}, "[1]": {"assay": "brain penetration inferred from behavioural effects", "format": "in vivo", "details": "inferred because it elicits behavioural effects", "source_text": "Since it elicits behavioural effects, the triazolo-pyridazine derivative of the invention plainly is brain-penetrant; in other words, it is capable of crossing the so-called “blood-brain barrier”. Advantageously, the triazolo-pyridazine derivative of the invention is capable of exerting its beneficial therapeutic action following administration by the oral route."}, "[2]": {"molecular_target": "α2 and/or α3 subunit of the human GABAA receptor", "assay": "[3H]-flumazenil displacement binding assay, α2 and/or α3 subunit", "details": "displacement of [3H]-flumazenil; human GABAA receptors stably expressed in Ltk- cells; read-out: binding affinity (Ki) for the α2 and/or α3 subunit", "procedure": "Assay buffer: 10 mM KH2PO4, 100 mM KCl, pH 7.4 at room temperature.\nFlunitrazepam 100 μM in assay buffer.\nCells resuspended in assay buffer (1 tray to 10 ml).\nSupernatant is removed from cells. PBS (approximately 20 ml) is added. The cells are scraped and placed in a 50 ml centrifuge tube. The procedure is repeated with a further 10 ml of PBS to ensure that most of the cells are removed. The cells are pelleted by centrifuging for 20 min at 3000 rpm in a benchtop centrifuge, and then frozen if desired. The pellets are resuspended in 10 ml of buffer per tray (25 cm×25 cm) of cells.\nCan be carried out in deep 96-well plates or in tubes. Each tube contains:\n50 μl of buffer or solvent carrier (e.g. 10% DMSO) if compounds are dissolved in 10% DMSO (total); test compound or flunitrazepam (to determine non-specific binding), 10 μM final concentration.\nAssays are incubated for 1 hour at 40° C., then filtered using either a Tomtec or Brandel cell harvester onto GF/B filters followed by 3×3 ml washes with ice cold assay buffer. Filters are dried and counted by liquid scintillation counting. […] Binding parameters are determined by non-linear least squares regression analysis, from which the inhibition constant Ki can be calculated for each test compound."}, "[3]": {"assay": "conditioned suppression of drinking test", "details": "in vivo"}, "[4]": {"assay": "response sensitivity (chain-pulling) test", "details": "in vivo"}, "[5]": {"molecular_target": "T1, α3 subunit of the human GABAA receptor relative to α1 subunit (Homo sapiens, UniProt P18507+P34903)", "T1 construct": "expressed in transfected cells; host or cells: stably transfected eukaryotic cells, typically mouse Ltk- fibroblasts", "T1 sequence (P34903 29-492)": "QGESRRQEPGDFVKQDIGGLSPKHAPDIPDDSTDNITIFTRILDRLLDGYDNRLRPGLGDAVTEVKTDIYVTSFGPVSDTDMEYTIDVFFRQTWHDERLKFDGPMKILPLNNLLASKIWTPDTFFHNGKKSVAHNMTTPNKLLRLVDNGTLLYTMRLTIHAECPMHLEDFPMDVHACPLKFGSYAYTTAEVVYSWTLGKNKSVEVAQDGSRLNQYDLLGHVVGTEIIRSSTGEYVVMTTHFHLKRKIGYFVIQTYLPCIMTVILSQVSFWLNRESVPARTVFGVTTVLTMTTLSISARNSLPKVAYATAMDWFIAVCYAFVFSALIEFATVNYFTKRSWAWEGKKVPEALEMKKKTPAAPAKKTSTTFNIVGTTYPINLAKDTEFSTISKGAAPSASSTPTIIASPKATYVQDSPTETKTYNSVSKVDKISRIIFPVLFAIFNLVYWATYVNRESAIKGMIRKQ", "T1 sequence (P28472 26-473 partner)": "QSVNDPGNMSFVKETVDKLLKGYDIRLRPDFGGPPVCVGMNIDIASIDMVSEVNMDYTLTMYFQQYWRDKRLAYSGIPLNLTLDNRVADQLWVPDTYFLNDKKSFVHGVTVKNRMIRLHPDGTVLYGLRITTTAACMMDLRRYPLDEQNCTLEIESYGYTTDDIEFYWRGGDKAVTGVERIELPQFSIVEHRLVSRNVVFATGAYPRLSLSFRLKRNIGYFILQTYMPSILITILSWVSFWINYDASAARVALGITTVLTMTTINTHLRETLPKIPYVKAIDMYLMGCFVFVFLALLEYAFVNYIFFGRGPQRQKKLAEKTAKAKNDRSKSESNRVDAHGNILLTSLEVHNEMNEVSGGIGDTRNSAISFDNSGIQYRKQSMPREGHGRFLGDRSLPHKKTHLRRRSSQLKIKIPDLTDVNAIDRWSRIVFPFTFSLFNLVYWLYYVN", "T1 sequence (P18507 40-467 limits assumed)": "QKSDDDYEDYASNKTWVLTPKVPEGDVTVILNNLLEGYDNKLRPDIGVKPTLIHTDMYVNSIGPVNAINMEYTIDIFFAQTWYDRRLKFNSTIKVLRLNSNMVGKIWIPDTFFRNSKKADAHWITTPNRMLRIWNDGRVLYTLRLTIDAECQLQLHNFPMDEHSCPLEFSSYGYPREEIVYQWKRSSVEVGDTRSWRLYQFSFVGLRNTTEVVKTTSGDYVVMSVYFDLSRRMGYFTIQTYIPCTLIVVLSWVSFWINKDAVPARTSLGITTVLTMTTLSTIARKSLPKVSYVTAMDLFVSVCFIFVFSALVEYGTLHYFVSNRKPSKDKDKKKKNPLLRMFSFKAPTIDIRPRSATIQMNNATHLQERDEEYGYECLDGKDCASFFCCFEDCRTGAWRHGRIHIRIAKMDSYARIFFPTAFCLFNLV", "assay": "potentiation of the GABA EC20 response in stably transfected recombinant cell lines", "format": "cell-based", "details": "stably transfected recombinant cell lines expressing α3 vs α1 subunit of the human GABAA receptor", "source_text": "The potentiation of the GABA EC20 response in stably transfected cell lines expressing the α3 and α1 subunits of the human GABAA receptor can conveniently be measured by procedures analogous to the protocol described in Wafford et al., Mol. Pharmacol., 1996, 50, 670-678. The procedure will suitably be carried out utilising cultures of stably transfected eukaryotic cells, typically of stably transfected mouse Ltk^− fibroblast cells."}, "α3β3γ2 GABAA/BzR": {"molecular_target": "α3β3γ2 GABAA/BzR (Homo sapiens, UniProt P18507+P34903)", "sequence (P18507 whole entry, looked up)": "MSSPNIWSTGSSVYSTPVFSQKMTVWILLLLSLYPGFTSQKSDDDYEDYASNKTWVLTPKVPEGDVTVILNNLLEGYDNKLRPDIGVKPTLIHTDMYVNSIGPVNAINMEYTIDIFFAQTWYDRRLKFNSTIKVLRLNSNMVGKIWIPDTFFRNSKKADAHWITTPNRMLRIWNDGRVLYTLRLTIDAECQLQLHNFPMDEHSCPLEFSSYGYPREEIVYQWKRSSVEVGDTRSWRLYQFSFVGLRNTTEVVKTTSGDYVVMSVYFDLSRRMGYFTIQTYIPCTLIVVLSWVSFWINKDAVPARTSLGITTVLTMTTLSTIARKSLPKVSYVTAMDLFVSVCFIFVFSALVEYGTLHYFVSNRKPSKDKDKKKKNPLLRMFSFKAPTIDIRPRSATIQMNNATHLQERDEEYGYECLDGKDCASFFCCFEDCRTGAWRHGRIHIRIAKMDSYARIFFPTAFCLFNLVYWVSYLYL", "sequence (P34903 whole entry, looked up)": "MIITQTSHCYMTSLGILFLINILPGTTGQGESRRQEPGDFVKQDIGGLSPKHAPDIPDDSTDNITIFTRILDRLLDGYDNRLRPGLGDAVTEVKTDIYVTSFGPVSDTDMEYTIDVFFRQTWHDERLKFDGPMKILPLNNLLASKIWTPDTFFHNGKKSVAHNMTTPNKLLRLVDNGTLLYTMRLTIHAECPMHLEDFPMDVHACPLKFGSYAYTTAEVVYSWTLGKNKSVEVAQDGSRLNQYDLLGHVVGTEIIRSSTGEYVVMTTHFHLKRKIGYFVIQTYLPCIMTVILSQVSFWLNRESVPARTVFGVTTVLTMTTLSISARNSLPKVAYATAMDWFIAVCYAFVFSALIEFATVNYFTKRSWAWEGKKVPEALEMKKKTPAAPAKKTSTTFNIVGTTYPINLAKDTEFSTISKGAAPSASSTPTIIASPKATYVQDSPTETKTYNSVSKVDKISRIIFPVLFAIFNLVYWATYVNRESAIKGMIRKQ", "assay": "biochemical"}},
  "data": [
    {"smiles": "CCn1ncnc1COc1nn2c(-c3ccccc3F)nnc2cc1C(C)(C)C", "note": "[triazolo-pyridazine derivative, 7-(1,1-dimethylethyl)-6-(2-ethyl-2H-1,2,4-triazol-3-ylmethoxy)-3-(2-fluorophenyl)-1,2,4-triazolo[4,3-b]pyridazine]", "values": [
      {"measurement": "anxiolytic activity, elevated plus maze", "setting": "elevated plus maze test", "result": "positive response"},
      {"measurement": "brain penetration (crossing the blood-brain barrier)", "setting": "[1]", "result": "brain-penetrant"},
      {"measurement": "Ki", "setting": "[2]", "result": "< 1", "unit": "nM"},
      {"measurement": "anxiolytic activity, conditioned suppression of drinking", "setting": "[3]", "result": "positive response"},
      {"measurement": "sedation, response sensitivity (chain-pulling) test", "setting": "[4]", "result": "substantially non-sedating"},
      {"measurement": "potentiation of the GABA EC20 response, α3 relative to α1", "setting": "[5]", "result": "selective potentiation"},
      {"measurement": "Ki", "setting": "α3β3γ2 GABAA/BzR", "result": "< 1", "unit": "nM"}
    ]}
  ]
}
